Patent US9890153B2, “Substituted 1H-pyrrolo [2, 3-b] pyridine and 1H-pyrazolo [3, 4-b] pyridine derivatives as salt inducible kinase 2 (SIK2) inhibitors” (Arrien Pharmaceuticals LLC, priority 2012, dated 2018)

Key:
Assay type in all cases: biochemical
[1] = target: SIK2 (QIK) (SEQ ID NO: 11) (Homo sapiens, UniProt Q9H0K1); assay: SIK2 kinase assay (radiometric, 10 μM ATP); details: read-out: SIK2 (QIK) (SEQ ID NO: 11) kinase inhibition result
Summary of the method: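 Radiometric filter-binding format: enzyme and substrate peptide incubated with or without compound and ATP mix for 20 min at 30 °C. Reaction stopped with phosphoric acid, captured on filter mats and washed with 0.8% phosphoric acid before counting.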

[2] = target: T1, SIK1 (SEQ ID NO: 10) (Homo sapiens, UniProt P57059); assay: Protein kinase assay, SIK1; details: read-out: SIK1 (SEQ ID NO: 10) kinase inhibition result
T1 construct: Reaction Biology Corporation (assay service, HotSpot panel)
T1 sequence (P57059 whole entry): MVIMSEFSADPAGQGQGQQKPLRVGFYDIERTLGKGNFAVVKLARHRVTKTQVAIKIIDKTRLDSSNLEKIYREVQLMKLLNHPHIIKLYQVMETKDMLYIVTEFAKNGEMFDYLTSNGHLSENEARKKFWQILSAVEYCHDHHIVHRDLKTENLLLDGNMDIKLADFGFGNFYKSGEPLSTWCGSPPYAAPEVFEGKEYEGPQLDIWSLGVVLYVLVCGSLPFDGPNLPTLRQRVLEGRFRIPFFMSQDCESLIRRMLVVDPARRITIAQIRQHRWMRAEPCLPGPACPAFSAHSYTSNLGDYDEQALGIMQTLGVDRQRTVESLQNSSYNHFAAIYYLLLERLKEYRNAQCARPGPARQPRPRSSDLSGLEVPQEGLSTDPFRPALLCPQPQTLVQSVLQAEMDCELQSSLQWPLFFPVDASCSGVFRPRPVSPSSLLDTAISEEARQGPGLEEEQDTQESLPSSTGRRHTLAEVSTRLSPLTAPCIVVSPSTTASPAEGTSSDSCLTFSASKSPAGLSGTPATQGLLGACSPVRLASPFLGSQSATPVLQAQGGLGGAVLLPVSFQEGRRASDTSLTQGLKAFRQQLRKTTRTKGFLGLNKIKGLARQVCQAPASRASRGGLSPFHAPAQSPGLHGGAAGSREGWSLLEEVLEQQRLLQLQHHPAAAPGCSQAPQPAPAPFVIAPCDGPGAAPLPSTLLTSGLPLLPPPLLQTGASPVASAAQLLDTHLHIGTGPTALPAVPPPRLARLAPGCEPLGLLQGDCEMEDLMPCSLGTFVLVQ
Experimental: (§1) Briefly, specific kinase/substrate pairs along with required cofactors were prepared in reaction buffer; 20 mM Hepes (pH 7.5), 10 mMmgCl2, 1 mM EGTA, 0.02% Brij35, 0.02 mg/ml BSA, 0.1 mM Na3VO4, 2 mM DTT, 1% DMSO. Compounds were delivered into the reaction, followed ˜20 min later by addition of a mixture of ATP (Sigma) and 33P ATP (PerkinElmer) to a final concentration of 10 μM. […] IC50 values and curve fits were obtained using Prism (GraphPad Software). Kinome tree representations were prepared using Kinome Mapper (http://www.reactionbiology.com/apps/kinome/mapper/LaunchKinome.htm).

[3] = target: T2, SIK3 (QSK) (SEQ ID NO: 24) (Homo sapiens, UniProt Q9Y2K2); assay: Protein kinase assay, SIK3; details: read-out: SIK3 (QSK) (SEQ ID NO: 24) kinase inhibition result
T2 construct: Reaction Biology Corporation (assay service, HotSpot panel)
T2 sequence (Q9Y2K2 whole entry): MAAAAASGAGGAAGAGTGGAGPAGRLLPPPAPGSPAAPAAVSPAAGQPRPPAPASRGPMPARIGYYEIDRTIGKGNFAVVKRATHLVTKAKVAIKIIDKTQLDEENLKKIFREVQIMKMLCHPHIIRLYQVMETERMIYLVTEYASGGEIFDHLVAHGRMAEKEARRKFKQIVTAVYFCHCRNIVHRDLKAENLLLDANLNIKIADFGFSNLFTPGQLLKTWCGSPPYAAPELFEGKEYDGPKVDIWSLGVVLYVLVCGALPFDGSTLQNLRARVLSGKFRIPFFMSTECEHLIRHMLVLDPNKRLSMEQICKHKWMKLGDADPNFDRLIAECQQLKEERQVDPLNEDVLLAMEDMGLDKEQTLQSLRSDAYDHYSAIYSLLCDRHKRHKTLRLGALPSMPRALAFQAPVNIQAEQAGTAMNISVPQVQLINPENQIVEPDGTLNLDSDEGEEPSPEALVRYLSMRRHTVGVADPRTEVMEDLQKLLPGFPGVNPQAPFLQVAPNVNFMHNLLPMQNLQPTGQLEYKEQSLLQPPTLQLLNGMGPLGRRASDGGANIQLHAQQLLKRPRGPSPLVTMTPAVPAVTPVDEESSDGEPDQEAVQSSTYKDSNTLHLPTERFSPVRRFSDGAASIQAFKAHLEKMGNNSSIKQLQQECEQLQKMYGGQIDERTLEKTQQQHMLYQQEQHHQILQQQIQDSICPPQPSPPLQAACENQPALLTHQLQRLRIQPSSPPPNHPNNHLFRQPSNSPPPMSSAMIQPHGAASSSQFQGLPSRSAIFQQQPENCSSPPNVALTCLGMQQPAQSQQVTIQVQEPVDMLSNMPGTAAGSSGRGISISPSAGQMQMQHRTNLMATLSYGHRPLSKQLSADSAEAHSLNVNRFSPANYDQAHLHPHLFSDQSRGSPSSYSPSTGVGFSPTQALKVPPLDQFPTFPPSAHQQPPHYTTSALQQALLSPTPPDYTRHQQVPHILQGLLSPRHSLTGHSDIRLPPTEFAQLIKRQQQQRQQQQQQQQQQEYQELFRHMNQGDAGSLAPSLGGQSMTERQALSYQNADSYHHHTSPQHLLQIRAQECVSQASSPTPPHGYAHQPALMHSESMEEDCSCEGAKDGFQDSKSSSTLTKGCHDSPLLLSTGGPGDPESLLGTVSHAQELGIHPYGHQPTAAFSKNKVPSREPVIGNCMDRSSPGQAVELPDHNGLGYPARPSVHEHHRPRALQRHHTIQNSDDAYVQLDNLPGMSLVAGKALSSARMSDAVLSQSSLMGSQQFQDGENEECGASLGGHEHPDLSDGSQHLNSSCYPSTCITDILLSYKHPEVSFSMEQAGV
Experimental: as §1

SIK2 (QIK) (SEQ ID NO: 11), sequence (Q9H0K1 whole entry): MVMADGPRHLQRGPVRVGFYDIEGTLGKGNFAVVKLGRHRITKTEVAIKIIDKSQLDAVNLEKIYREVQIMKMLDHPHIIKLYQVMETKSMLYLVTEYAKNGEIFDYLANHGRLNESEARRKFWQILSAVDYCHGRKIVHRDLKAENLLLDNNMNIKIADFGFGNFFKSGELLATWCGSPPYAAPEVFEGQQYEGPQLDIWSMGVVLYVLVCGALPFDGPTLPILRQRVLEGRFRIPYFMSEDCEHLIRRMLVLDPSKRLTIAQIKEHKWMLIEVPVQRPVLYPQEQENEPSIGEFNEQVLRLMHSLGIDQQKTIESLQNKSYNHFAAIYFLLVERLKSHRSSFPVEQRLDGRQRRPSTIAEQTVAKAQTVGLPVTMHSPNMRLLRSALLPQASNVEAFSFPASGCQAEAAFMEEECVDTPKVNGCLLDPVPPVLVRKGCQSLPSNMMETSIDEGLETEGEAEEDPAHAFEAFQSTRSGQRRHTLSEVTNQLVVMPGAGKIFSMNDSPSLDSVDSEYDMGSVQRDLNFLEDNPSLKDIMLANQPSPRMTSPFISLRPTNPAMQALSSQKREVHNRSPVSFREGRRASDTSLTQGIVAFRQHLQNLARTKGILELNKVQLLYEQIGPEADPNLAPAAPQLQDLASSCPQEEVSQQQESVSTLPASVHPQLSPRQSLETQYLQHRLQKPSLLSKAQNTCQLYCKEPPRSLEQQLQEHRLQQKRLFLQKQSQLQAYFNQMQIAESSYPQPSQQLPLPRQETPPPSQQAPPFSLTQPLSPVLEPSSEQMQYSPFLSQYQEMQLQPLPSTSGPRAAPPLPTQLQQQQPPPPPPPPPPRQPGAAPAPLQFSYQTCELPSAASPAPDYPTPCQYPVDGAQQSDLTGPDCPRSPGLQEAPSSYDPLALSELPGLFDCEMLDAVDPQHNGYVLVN

Row | Compound | IC50 [1] [nM] | IC50 [2] [nM] | IC50 [3] [nM]
1 | FC1(F)Oc2ccc(-c3c[nH]c4ncc(-c5cnc(N6CCOCC6)s5)cc34)cc2O1 [Example 201, 4-(5-(3-(2,2-difluorobenzo[d][1,3]dioxol-5-yl)-1H-pyrrolo[2,3-b]pyridin-5-yl)thiazol-2-yl)morpholine] | > 1000 | > 1000 | > 1000
2 | CN(C(C)(C)C)S(=O)(=O)c1cccc(-c2cnc3[nH]cc(-c4ccc5c(c4)OC(F)(F)O5)c3c2)c1 [Example 202, N-(tert-butyl)-3-(3-(2,2-difluorobenzo[d][1,3]dioxol-5-yl) 1H-pyrrolo[2,3-b]pyridin-5-yl)-N-methylbenzenesulfonamide] | < 100 | > 100 | < 100
3 | FC1(F)Oc2ccc(-c3c[nH]c4ncc(-c5ccc(CN6CCCCC6)s5)cc34)cc2O1 [Example 204, 3-(2,2-difluorobenzo[d][1,3]dioxol-5-yl)-5-(5-(piperidin-1-ylmethyl)thiophen-2-yl)-1H-pyrrolo[2,3-b]pyridine] | < 100 | > 100 | < 100
4 | FC1(F)Oc2ccc(-c3c[nH]c4ncc(-c5csc(N6CCOCC6)n5)cc34)cc2O1 [Example 205, 4-(4-(3-(2,2-difluorobenzo[d][1,3]dioxol-5-yl)-1H-pyrrolo[2,3-b]pyridin-5-yl)thiazol-2-yl)morpholine] | < 100 | > 100 | < 100
5 | COc1c(F)cc(F)cc1-c1c[nH]c2ncc(-c3cnn(S(=O)(=O)N4CCN(C)CC4)c3)cc12 [Example 211, 3-(3,5-difluoro-2-methoxyphenyl)-5-(1-((4-methylpiperazin-1-yl)sulfonyl)-1H-pyrazol-4-yl)-1H-pyrrolo[2,3-b]pyridine] | < 100 | > 100 | < 100
6 | COc1c(F)cc(F)cc1-c1c[nH]c2ncc(-c3cnn(C4CCN(C)CC4)c3)cc12 [Example 212, 3-(3,5-difluoro-2-methoxyphenyl)-5-(1-(1-methylpiperidin-4-yl)-1H-pyrazol-4-yl)-1H-pyrrolo[2,3-b]pyridine] | < 100 | > 100 | < 100
7 | CCS(=O)(=O)N1CCC(n2cc(-c3cnc4[nH]cc(-c5cc(F)cc(F)c5OC)c4c3)cn2)CC1 [Example 215, 3-(3,5-difluoro-2-methoxyphenyl)-5-(1-(1-(ethylsulfonyl)piperidin-4-yl)-1H-pyrazol-4-yl)-1H-pyrrolo[2,3-b]pyridine] | > 100 | > 1000 | > 100
8 | COc1c(F)cc(F)cc1-c1c[nH]c2ncc(-n3cc(N4CCN(CCO)CC4)cn3)cc12 [Example 218, 2-(4-(1-(3-(3,5-difluoro-2-methoxyphenyl)-1H-pyrrolo[2,3-b]pyridin-5-yl)-1H-pyrazol-4-yl)piperazin-1-yl)ethanol] | < 100 | > 100 | < 100
9 | CN1CCN(S(=O)(=O)n2cc(-c3cnc4[nH]cc(-c5ccc6c(c5)OC(F)(F)O6)c4c3)cn2)CC1 [Example 219, 3-(2,2-difluorobenzo[d][1,3]dioxol-5-yl)-5-(1-((4-methylpiperazin-1-yl)sulfonyl)-1H-pyrazol-4-yl)-1H-pyrrolo[2,3-b]pyridine] | < 100 | > 100 | < 100
10 | CN1CCC(n2cc(-c3cnc4[nH]cc(-c5ccc6c(c5)OC(F)(F)O6)c4c3)cn2)CC1 [Example 220, 3-(2,2-difluorobenzo[d][1,3]dioxol-5-yl)-5-(1-(1-methylpiperidin-4-yl)-1H-pyrazol-4-yl)-1H-pyrrolo[2,3-b]pyridine] | > 100 | > 1000 | > 1000
11 | CS(=O)(=O)N1CCC(n2cc(-c3cnc4[nH]cc(-c5ccc6c(c5)OC(F)(F)O6)c4c3)cn2)CC1 [Example 221, 3-(2,2-difluorobenzo[d][1,3]dioxol-5-yl)-5-(1-(1-(methylsulfonyl)piperidin-4-yl)-1H-pyrazol-4-yl)-1H-pyrrolo[2,3-b]pyridine] | > 1000 | > 1000 | > 1000
12 | CCCS(=O)(=O)N1CCC(n2cc(-c3cnc4[nH]cc(-c5ccc6c(c5)OC(F)(F)O6)c4c3)cn2)CC1 [Example 223, 3-(2,2-difluorobenzo[d][1,3]dioxol-5-yl)-5-(1-(1-(propylsulfonyl)piperidin-4-yl)-1H-pyrazol-4-yl)-1H-pyrrolo[2,3-b]pyridine] | > 1000 | > 1000 | > 1000
13 | CS(=O)(=O)N1CCN(c2cnn(-c3cnc4[nH]cc(-c5ccc6c(c5)OC(F)(F)O6)c4c3)c2)CC1 [Example 224, 3-(2,2-difluorobenzo[d][1,3]dioxol-5-yl)-5-(4-(4-(methylsulfonyl)piperazin-1-yl)-1H-pyrazol-1-yl)-1H-pyrrolo[2,3-b]pyridine] | < 100 | > 100 | < 100
14 | OCCN1CCN(c2cnn(-c3cnc4[nH]cc(-c5ccc6c(c5)OC(F)(F)O6)c4c3)c2)CC1 [Example 225, 2-(4-(1-(3-(2,2-difluorobenzo[d][1,3]dioxol-5-yl)-1H-pyrrolo[2,3-b]pyridin-5-yl)-1H-pyrazol-4-yl)piperazin-1-yl)ethanol] | < 100 | > 100 | < 100

Now from value to compound:

Row | IC50 [1] [nM] | IC50 [2] [nM] | IC50 [3] [nM] | Compound
15 | < 100 | > 1000 | > 1000 | FC1(F)Oc2ccc(-c3c[nH]c4ncc(-c5ccc(CN6CCCC6)s5)cc34)cc2O1 [Example 203, 3-(2,2-difluorobenzo[d][1,3]dioxol-5-yl)-5-(5-(pyrrolidin-1-ylmethyl)thiophen-2-yl)-1H-pyrrolo[2,3-b]pyridine]
16 | < 100 | > 100 | < 100 | FC1(F)Oc2ccc(-c3c[nH]c4ncc(-c5cnn(C6CCNCC6)c5)cc34)cc2O1 [Example 206, 3-(2,2-difluorobenzo[d][1,3]dioxol-5-yl)-5-(1-(piperidin-4-yl)-1H-pyrazol-4-yl)-1H-pyrrolo[2,3-b]pyridine]
17 | < 100 | > 100 | < 100 | COc1c(F)cccc1-c1c[nH]c2ncc(-c3csc(N4CCOCC4)n3)cc12 [Example 207, 4-(4-(3-(3-fluoro-2-methoxyphenyl)-1H-pyrrolo[2,3-b]pyridin-5-yl)thiazol-2-yl)morpholine]
18 | < 100 | > 100 | < 100 | COc1c(F)cc(F)cc1-c1c[nH]c2ncc(-c3csc(N4CCOCC4)n3)cc12 [Example 208, 4-(4-(3-(3,5-difluoro-2-methoxyphenyl)-1H-pyrrolo[2,3-b]pyridin-5-yl)thiazol-2-yl)morpholine]
19 | < 100 | < 100 | < 100 | FC1(F)Oc2cccc(-c3c[nH]c4ncc(-c5cnn(C6CCNCC6)c5)cc34)c2O1 [Example 209, 3-(2,2-difluorobenzo[d][1,3]dioxol-4-yl)-5-(1-(piperidin-4-yl)-1H-pyrazol-4-yl)-1H-pyrrolo[2,3-b]pyridine]
20 | < 100 | > 100 | < 100 | O=C(c1c(F)cccc1F)c1c[nH]c2ncc(-c3cnn(C4CCNCC4)c3)cc12 [Example 210, (2,6-difluorophenyl)(5-(1-(piperidin-4-yl)-1H-pyrazol-4-yl)-1H-pyrrolo[2,3-b]pyridin-3-yl)methanone]
21 | < 100 | > 100 | < 100 | O=C(c1c(F)cccc1F)c1c[nH]c2ncc(-c3cnc(N4CCOCC4)s3)cc12 [Example 213, (2,6-difluorophenyl)(5-(2-morpholinothiazol-5-yl)-1H-pyrrolo[2,3-b]pyridin-3-yl)methanone]
22 | > 100 | > 1000 | > 100 | CCCS(=O)(=O)N1CCC(n2cc(-c3cnc4[nH]cc(-c5cc(F)cc(F)c5OC)c4c3)cn2)CC1 [Example 216, 3-(3,5-difluoro-2-methoxyphenyl)-5-(1-(1-(propylsulfonyl)piperidin-4-yl)-1H-pyrazol-4-yl)-1H-pyrrolo[2,3-b]pyridine]
23 | < 100 | > 100 | < 100 | COc1c(F)cc(F)cc1-c1c[nH]c2ncc(-n3cc(N4CCN(S(C)(=O)=O)CC4)cn3)cc12 [Example 217, 3-(3,5-difluoro-2-methoxyphenyl)-5-(4-(4-(methylsulfonyl)piperazin-1-yl)-1H-pyrazol-1-yl)-1H-pyrrolo[2,3-b]pyridine]
24 | > 1000 | > 1000 | > 1000 | CCS(=O)(=O)N1CCC(n2cc(-c3cnc4[nH]cc(-c5ccc6c(c5)OC(F)(F)O6)c4c3)cn2)CC1 [Example 222, 3-(2,2-difluorobenzo[d][1,3]dioxol-5-yl)-5-(1-(1-(ethylsulfonyl)piperidin-4-yl)-1H-pyrazol-4-yl)-1H-pyrrolo[2,3-b]pyridine]
25 | < 100 | > 100 | < 100 | COc1c(F)cc(F)cc1-c1c[nH]c2ncc(-c3cnn(C4CCN(CCO)CC4)c3)cc12 [Example 226, 2-(4-(4-(3-(3,5-difluoro-2-methoxyphenyl)-1H-pyrrolo[2,3-b]pyridin-5-yl)-1H-pyrazol-1-yl)piperidin-1-yl)ethanol]
26 | < 100 | > 100 | < 100 | OCCN1CCC(n2cc(-c3cnc4[nH]cc(-c5ccc6c(c5)OC(F)(F)O6)c4c3)cn2)CC1 [Example 227, 2-(4-(4-(3-(2,2-difluorobenzo[d][1,3]dioxol-5-yl)-1H-pyrrolo[2,3-b]pyridin-5-yl)-1H-pyrazol-1-yl)piperidin-1-yl)ethanol]
